From paper PMC11514582, “Leveraging the Aggregated Protein Dye YAT2150 for Malaria Chemotherapy” (Pharmaceutics, 2024) come the findings set out here.

The subject of one series is Caco-2 cells. Briefly: Influx and efflux assays in Caco-2 cells with transporter/endocytosis inhibitors. Type of series: cell-based, human. The note with it: 5 µM, FBS-free medium. From the text:
The panel of influx and efflux membrane transporters expressed in Caco-2 cells has been previously characterized and, to a great extent, mimics the one described in human intestine. Based upon this information and the established knowledge of the physiology of intestinal transporters, we considered the following as possible YAT2150 influx transporters: Organic Cation Transporters (OCTs), Peptide Transporter 1 (PEPT1), and Organic Anion Transporter Polypeptide 2B1 (OATP2B1). […]
Caco-2 cells were grown in monolayer on a solid support at 37 °C in a humidified atmosphere with 5% CO2 and maintained in DMEM supplemented with 10% FBS, 2 mM L-glutamine, 1% MEM non-essential amino acids, 20 U/mL penicillin, and 20 µg/mL streptomycin (Life Technologies, Carlsbad, CA, USA). To identify YAT2150 influx and efflux mechanisms in Caco-2 cells, YAT2150 intracellular accumulation was determined by measuring its fluorescent emission at 610 nm under various experimental conditions as follows. A total of 50,000 cells/well were seeded in MW24 plates, and 24 h after seeding, YAT2150 influx and efflux were determined either in the presence or absence of FBS. […] Then, cells were washed with PBS, and intracellular YAT2150 was determined (see below). […] In parallel, emitted fluorescence was measured in an iBright Imaging System and quantified by iBright Analysis Software 5.3.0 (Thermo Fisher Scientific, Inc.). […]

Series [1] is described as follows: Cytotoxicity assay in HEP-G2 (MTT). To be noted: human, Hep-G2 cells, read-out: HEP-G2 inhibition (CC50). Type of series: cell-based.
Protocol: (§2) THP-1 human acute monocytic leukemia cells and NCI-H460 human lung carcinoma cells were grown in RPMI supplemented with 10% FBS. Hep-G2 human hepatocellular carcinoma cells were cultured in Eagle’s minimum essential medium (EMEM) supplemented with 10% FBS. A2780 human ovarian carcinoma cells were grown in RPMI supplemented with 10% FBS and 2 mM L-glutamine. MCF-7 human breast adenocarcinoma cells were cultured in EMEM containing 2 mM L-glutamine and Earle’s balanced salt solution adjusted with 1.5 g/L sodium bicarbonate, 0.1 mM non-essential amino acids, and 1 mM sodium pyruvate and supplemented with 10% FBS. […] Except for Caco-2 and HUVEC, inhibition of cell growth was evaluated using a protocol based on monitoring the transformation into formazan of the tetrazolium salt of MTT (3-(4,5-dimethylthiazol-2-yl)-2,5-diphenyltretrazolium bromide) by metabolically active cells. […] After 96 further h of incubation in the same conditions, 10 µL of a 5 mg/mL MTT solution in PBS was added to each sample, and the incubation was resumed for another 4 h. […] The absorbance measurement range was framed between one sample containing 4000 cells in plain growth medium (to determine the stable cell concentration) and another sample containing an equal cell number in growth medium supplemented with growth factors (to measure the maximum cell growth at 96 h).
The nature of series [2]: Cytotoxicity assay in Caco-2 (resazurin). Type of series: cell-based. The note with it: human, read-out: Caco-2 inhibition (CC50).
Series [3] in a line: Cytotoxicity assay in THP-1 (MTT). Type of series: cell-based. To be noted: human, THP-1 cells, read-out: THP-1 inhibition (CC50).
Protocol: as §2
Series [4] is described as follows: In vivo toxicity in C. elegans. To be noted: N2 Bristol, Caenorhabditis elegans, in vivo; 48 h, viability. The arrangement: species or system Caenorhabditis elegans. The procedure:
(§1) The Caenorhabditis elegans N2 Bristol strain (kindly provided by Dr. Christian Griñán-Ferré) was cultured, following established methods, in 90 mm Petri dishes containing solid Nematode Growth Media (NGM) seeded with E. coli OP50 (100 µL of an overnight culture spread on top of the NGM), maintained at 20 °C, and expanded to new plates once a week by transferring a 1-cm^3 NGM cube to a new plate. […] To do this, a plate with gravid adult worms was washed twice with 5 mL of M9 buffer (20 mM KH2PO4, 42 mM Na2HPO4, 86 mM NaCl, 1 mM MgSO4), and the nematodes were transferred to a 15-mL conical tube, where they were pelleted (400× g, 2 min). […] C. elegans viability and body length were analyzed after 48 h under a stereomicroscope (Leica M50 Routine Stereo Microscope; Leica Microsystems GmbH), taking representative images and videos with a 4× objective. C. elegans viability was determined in three experimentally independent replicas according to two variables: body shape (stiff, rod-like worms were counted as dead, as opposite to s-shaped live worms) and presence of movement in living C. elegans, with an n ≥ 100 worms/sample. Nematode body length was calculated with ImageJ software in worms anesthetized with 50 mM sodium azide. Statistically significant differences between groups were determined by the two-way analysis of variance (ANOVA) using GraphPad Prism 9.0.1.

The test system of the next series is C. elegans. Briefly: In vivo toxicity in C. elegans. To be noted: non-encapsulated, 50 µM. The arrangement: species or system Caenorhabditis elegans. The procedure:
as §1

For series [5], the target named is recombinant human cytochrome P450 enzyme CYP3A4 (Homo sapiens, UniProt P08684). Kind of series: biochemical.
Chain of recombinant human cytochrome P450 enzyme CYP3A4 (P08684 whole entry): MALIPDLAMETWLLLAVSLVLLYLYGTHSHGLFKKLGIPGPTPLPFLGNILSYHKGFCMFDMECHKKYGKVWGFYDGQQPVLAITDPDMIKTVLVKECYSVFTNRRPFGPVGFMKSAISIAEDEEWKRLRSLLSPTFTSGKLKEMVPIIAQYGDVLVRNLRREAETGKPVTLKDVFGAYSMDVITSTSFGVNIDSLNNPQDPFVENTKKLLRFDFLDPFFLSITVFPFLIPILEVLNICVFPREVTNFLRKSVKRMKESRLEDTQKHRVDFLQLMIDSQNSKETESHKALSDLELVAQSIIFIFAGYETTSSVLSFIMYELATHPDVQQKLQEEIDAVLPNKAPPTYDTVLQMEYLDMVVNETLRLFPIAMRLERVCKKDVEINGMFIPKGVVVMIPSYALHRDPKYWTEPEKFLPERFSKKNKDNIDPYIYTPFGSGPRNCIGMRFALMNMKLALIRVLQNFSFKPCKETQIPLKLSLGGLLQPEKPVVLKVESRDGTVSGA

With `CCN(CC)c1ccc(/C=C/c2cc[n+](CCCCCCCCCC[n+]3ccc(/C=C/c4ccc(N(CC)CC)cc4)c(C)c3)cc2C)cc1` [YAT2150], in the series with Caco-2 cells (with efflux inhibitors), the “efflux route in Caco-2 cells” value is listed as “OSTα/β transporters mediated YAT2150 efflux”. In addition, in the series on Caco-2 cells (with influx inhibitors), the “influx route in Caco-2 cells” value is “mainly internalized by endocytosis and also through the OATP2B1 transporter”. The values for the CC50 at 96 h in series [1] and in series [3] were 2540 ± 80 nM and 660 ± 10 nM, respectively. Moreover, the CC50 at 48 h in series [2] came out at 18200 ± 2600 nM. Also, the 50% inhibitory concentration (IC50) at 48 h in series [4] amounted to 16200 ± 1400 nM. In the series with C. elegans, the “nematode survival/length assay observation” value was “No worms could be found”. Besides, the IC50 in series [5] is 1000 nM.
